Here are results for 28 compounds from US20240217968A1, “PHARMACEUTICAL COMPOUND” (DUKE STREET BIO LIMITED, priority 2021, published 2024).

This test addresses T1, recombinant human Flag-tagged PARP7 (amino acids 456-657) (Homo sapiens, UniProt Q7Z3E1).
T1 construct: recombinant human Flag-tagged PARP7 (amino acids 456-657)
T1 sequence (Q7Z3E1 456-657): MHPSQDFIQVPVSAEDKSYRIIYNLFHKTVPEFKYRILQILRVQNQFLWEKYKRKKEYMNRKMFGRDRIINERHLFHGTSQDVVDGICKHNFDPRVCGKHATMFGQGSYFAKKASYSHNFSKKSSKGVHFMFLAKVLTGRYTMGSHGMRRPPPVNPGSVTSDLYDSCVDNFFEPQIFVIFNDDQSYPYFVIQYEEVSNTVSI
In words: PARP7 biochemical DELFIA assay (auto-MARylation). The conditions noted are these: DELFIA readout, IC50 class. On the procedure: A suitable assay may be conducted using 10-30 nM PARP7 (amino acids 456-657), 2 μM biotin-NAD assay solution in 20 mM HEPES (pH 7.5), 100 mM NaCl, 2 mM DTT, 0.1% BSA (w/v), 0.02% Tween (v/v) assay buffer. MARylation may take place for 2-3 h at room temperature and may be detected using a dissociation-enhanced lanthanide fluorescence immunoassay (DELFIA) readout. This assay format has been recently utilised for screening for modulators of PARP7 and other MonoPARP enzymes ([…]. et al. Forced Self-Modification Assays as a Strategy to Screen MonoPARP Enzymes. SLAS Discovery. 25; 241-252, (2020)). A particularly suitable assay is described in the Examples below. Optiplate HB 384-well plates were coated with anti-FLAG antibody, supplied as a 4 mg/ml solution, using a Na2CO3/HCO3 coating buffer at pH 9.6, overnight at 4° C., in order to achieve a final immobilisation per well of 0.3 μg. Wells were then washed 3× in coating wash buffer (PBS/0.05% Tween (v/v)), blocked with 2% BSA (w/v) in coating wash buffer and washed 3 further times prior to assay. For the assay 20 μl of 12.5-37.5 nM recombinant human Flag-tagged PARP7 (amino acids 456-657) was added to each well of the 384-well plate for 30 min at room temperature. 50 nl of test compound in DMSO was added using pintool technology and plates were incubated for a further 30 min at room temperature. 5 μl of 15 μM biotin-NAD^+ assay solution in 20 mM HEPES (pH 7.5), 100 mM NaCl, 2 mM DTT, 0.1% BSA (w/v), 0.02% Tween (v/v) assay buffer was then added and MARylation proceeded for 2-3 h at room temperature prior to the addition of 5 μl of 12 mM NAD^+ quenching solution. After 30 min at room temperature, assay solution was removed and following washing 5 times, 100 μl of a 1:1000 dilution of DELFIA Eu-N1 Streptavidin reagent was added. Plates were then incubated for 30 min at room temperature. Reaction mixture was removed and plates washed 5 times prior to the addition of 25 μl DELFIA enhancement solution. Following incubation for 30 min at room temperature, fluorescence was read on either an Envision or Pherastar FS (Ex337 nm, Em620 nm).

Molecules are shown by their SMILES.

For the compound `CC(COCC(=O)N1CCN(c2ncc(C(F)(F)F)cn2)CC1)Oc1cccc2c(=O)[nH]ncc12` (racemic) [Compound 33, 5-((1-(2-oxo-2-(4-(5-(trifluoromethyl)pyrimidin-2-yl)piperazin-1-yl)ethoxy)propan-2-yl)oxy)phthalazin-1(2H)-one], the IC50 lay in the range of 100 to 1000 nM.
For `CC1Cc2c(cn[nH]c2=O)N(CCOCCC(=O)N2CCN(c3ncc(C(F)(F)F)cn3)CC2)C1` (single isomer, unassigned) [Compound 64, 3-methyl-1-(2-(3-oxo-3-(4-(5-(trifluoromethyl)pyrimidin-2-yl)piperazin-1-yl)propoxy)ethyl)-2,3,4,6-tetrahydropyrido[2,3-d]pyridazin-5(1H)-one] the value was at most 100 nM.
For `CC1Cc2c(cn[nH]c2=O)N(CCOCCC(=O)N2CCN(c3ncc(C(F)(F)F)cn3)CC2)C1` (single isomer, unassigned) [Compound 65, 3-methyl-1-(2-(3-oxo-3-(4-(5-(trifluoromethyl)pyrimidin-2-yl)piperazin-1-yl)propoxy)ethyl)-2,3,4,6-tetrahydropyrido[2,3-d]pyridazin-5(1H)-one] the value was at most 100 nM; for `CC(COCCC(=O)N1CCN(c2ccc(C#N)cn2)CC1)c1cccc2c(=O)[nH]ncc12` (single isomer, unassigned) [Compound 71], at most 100 nM; for `CC(COCCC(=O)N1CCN(c2ncc(C(F)(F)F)cn2)CC1)c1cccc2c(=O)[nH]ncc12` (single isomer, unassigned) [Compound 72, 5-(1-(3-oxo-3-(4-(5-(trifluoromethyl)pyrimidin-2-yl)piperazin-1-yl)propoxy)propan-2-yl)phthalazin-1(2H)-one], 1000 to 10000 nM.
For `CC(COCCC(=O)N1CCN(c2ncc(C(F)(F)F)cn2)CC1)c1cccc2c(=O)[nH]ncc12` (single isomer, unassigned) [Compound 73, 5-(1-(3-oxo-3-(4-(5-(trifluoromethyl)pyrimidin-2-yl)piperazin-1-yl)propoxy)propan-2-yl)phthalazin-1(2H)-one] the value was at most 100 nM; for `CC1CN(c2ccc(C#N)cn2)CCN1C(=O)CCOCCc1cccc2c(=O)[nH]ncc12` (single isomer, unassigned) [Compound 86], at most 100 nM.
Take `CC(OCCCC(=O)N1CCN(c2ncc(C(F)(F)F)cn2)CC1)c1cccc2c(=O)[nH]ncc12` (single isomer, unassigned) [Compound 122]: the half-maximal inhibitory concentration (IC50) is at most 100 nM.
Turning to `CC(OCCCC(=O)N1CCN(c2ncc(C(F)(F)F)cn2)CC1)c1cc(F)cc2c(=O)[nH]ncc12` (single isomer, unassigned) [Compound 130], the IC50 was at most 100 nM.
For the compound `O=C(CCOCCc1cccc2c(=O)[nH]ncc12)N1CCN(c2ncc(C(F)(F)F)cn2)C(CO)C1` (single isomer, unassigned) [Compound 149], the IC50 was at most 100 nM.
The value for `Cc1cn(C(C)COCCC(=O)N2CCN(c3ncc(C(F)(F)F)cn3)CC2)c2cn[nH]c(=O)c12` (single isomer, unassigned) [Compound 151] was at most 100 nM; that for `CC(OCCCC(=O)N1CCN(c2ncc(C(F)(F)F)cn2)CC1)c1cc(Cl)cc2c(=O)[nH]ncc12` (single isomer, unassigned) [Compound 174, 7-chloro-5-(1-(4-oxo-4-(4-(5-(trifluoromethyl)pyrimidin-2-yl)piperazin-1-yl)butoxy)ethyl)phthalazin-1(2H)-one] was at most 100 nM; that for `CC(OCCCC(=O)N1CCN(c2ncc(C(F)(F)F)cn2)CC1)c1cc(Cl)cc2c(=O)[nH]ncc12` (single isomer, unassigned) [Compound 175, 7-chloro-5-(1-(4-oxo-4-(4-(5-(trifluoromethyl)pyrimidin-2-yl)piperazin-1-yl)butoxy)ethyl)phthalazin-1(2H)-one] was at most 100 nM.
On to `CC(COCCC(=O)N1CCN(c2ncc(C(F)(F)F)cn2)CC1)n1nc(C(F)(F)F)c2c(=O)[nH]ncc21` (single isomer, unassigned) [Compound 176, 1-(1-(3-oxo-3-(4-(5-(trifluoromethyl)pyrimidin-2-yl)piperazin-1-yl)propoxy)propan-2-yl)-3-(trifluoromethyl)-1,5-dihydro-4H-pyrazolo[3,4-d]pyridazin-4-one], for which the concentration for half-maximal inhibition (IC50) is at most 100 nM.
As to `CC(COCCC(=O)N1CCN(c2ncc(Cl)cn2)CC1)n1nc(C(F)(F)F)c2c(=O)[nH]ncc21` (single isomer, unassigned) [Compound 185], the half-maximal inhibitory concentration (IC50) was at most 100 nM.
The value for `CC1CN(C(=O)CCOCCn2nc(C(F)(F)F)c3c(=O)[nH]ncc32)CCN1c1ncc(C(F)(F)F)cn1` (single isomer, unassigned) [Compound 187] was at most 100 nM; that for `CC1CN(C(=O)CCOCCn2nc(C(F)(F)F)c3c(=O)[nH]ncc32)CCN1c1ncc(C(F)(F)F)cn1` (single isomer, unassigned) [Compound 188] was at most 100 nM; that for `CC(COCCC(=O)N1CCN(c2ccc(C#N)cn2)CC1)n1ncc2c(=O)[nH]ncc21` (single isomer, unassigned) [Compound 189] was at most 100 nM.
On to `CC(COCCC(=O)N1CCN(c2ccc(C#N)cn2)CC1)n1ncc2c(=O)[nH]ncc21` (single isomer, unassigned) [Compound 190], for which the IC50 lay in the range of 100 to 1000 nM.
As to `CCC(OCCCC(=O)N1CCN(c2ncc(C(F)(F)F)cn2)CC1)c1cccc2c(=O)[nH]ncc12` (single isomer, unassigned) [Compound 210], the IC50 is at most 100 nM.
For the compound `O=C(CCCOC(c1cccc2c(=O)[nH]ncc12)C(F)(F)F)N1CCN(c2ncc(C(F)(F)F)cn2)CC1` (single isomer, unassigned) [Compound 221, 5-(2,2,2-trifluoro-1-(4-oxo-4-(4-(5-(trifluoromethyl)pyrimidin-2-yl)piperazin-1-yl)butoxy)ethyl)phthalazin-1(2H)-one], the half-inhibitory concentration (IC50) fell in the range of 100 to 1000 nM.
For `O=C(CCCOC(c1cccc2c(=O)[nH]ncc12)C(F)(F)F)N1CCN(c2ncc(C(F)(F)F)cn2)CC1` (single isomer, unassigned) [Compound 222, 5-(2,2,2-trifluoro-1-(4-oxo-4-(4-(5-(trifluoromethyl)pyrimidin-2-yl)piperazin-1-yl)butoxy)ethyl)phthalazin-1(2H)-one] the value was 100 to 1000 nM; for `CC(COCCC(=O)N1CCN(c2ncc(C(F)(F)F)cn2)CC1)n1cc(C(F)(F)F)c2c(=O)[nH]ncc21` (single isomer, unassigned) [Compound 223, 1-(1-(3-oxo-3-(4-(5-(trifluoromethyl)pyrimidin-2-yl)piperazin-1-yl)propoxy)propan-2-yl)-3-(trifluoromethyl)-1,5-dihydro-4H-pyrrolo[2,3-d]pyridazin-4-one], at most 100 nM.
For `CC(COCCC(=O)N1CCN(c2ncc(C(F)(F)F)cn2)CC1)n1cc(C(F)(F)F)c2c(=O)[nH]ncc21` (single isomer, unassigned) [Compound 224, 1-(1-(3-oxo-3-(4-(5-(trifluoromethyl)pyrimidin-2-yl)piperazin-1-yl)propoxy)propan-2-yl)-3-(trifluoromethyl)-1,5-dihydro-4H-pyrrolo[2,3-d]pyridazin-4-one] the value was at most 100 nM.
For `Cc1nn(C(C)COCCC(=O)N2CCN(c3ncc(C(F)(F)F)cn3)CC2)c2cn[nH]c(=O)c12` (single isomer, unassigned) [Compound 245], the IC50 is at most 100 nM.
Take `CC(COCCC(=O)N1CCN(c2ncc(F)cn2)CC1)n1nc(C(F)(F)F)c2c(=O)[nH]ncc21` (single isomer, unassigned) [Compound 248, 1-(1-(3-(4-(5-fluoropyrimidin-2-yl)piperazin-1-yl)-3-oxopropoxy)propan-2-yl)-3-(trifluoromethyl)-1,5-dihydro-4H-pyrazolo[3,4-d]pyridazin-4-one]: the concentration for half-maximal inhibition (IC50) was at most 100 nM.
Turning to `CC(COCCC(=O)N1CCN(c2ncc(F)cn2)CC1)n1nc(C(F)(F)F)c2c(=O)[nH]ncc21` (single isomer, unassigned) [Compound 249, 1-(1-(3-(4-(5-fluoropyrimidin-2-yl)piperazin-1-yl)-3-oxopropoxy)propan-2-yl)-3-(trifluoromethyl)-1,5-dihydro-4H-pyrazolo[3,4-d]pyridazin-4-one], the 50% inhibitory concentration (IC50) was at most 100 nM.
In the case of `CC(COCCC(=O)N1CCN(c2nc(C#N)cs2)CC1)n1nc(C(F)(F)F)c2c(=O)[nH]ncc21` (single isomer, unassigned) [Compound 250], the IC50 was 1000 to 10000 nM.

As usually defined, the IC50 is the concentration that inhibits the measured activity by half.
